Reference: article PMC7138900, “Characterization of MaltOBP1, a Minus-C Odorant-Binding Protein, From the Japanese Pine Sawyer Beetle, Monochamus alternatus Hope (Coleoptera: Cerambycidae)” (Frontiers in Physiology, 2020)
Read-outs that look alike come from different tables or passages of the source.

Columns and labels:
recombinant MaltOBP1 [1] = target: T1, recombinant MaltOBP1 (Monochamus alternatus, UniProt A6YIT8); assay: Competitive ligand-binding assay (1-NPN displacement); details: for binding affinity to MaltOBP1 (in words): fluorescence competitive binding; for Ki: Ki = [IC50]/(1 + [1-NPN]/K1-NPN), read-out: Ki (dissociation constant)
Experimental: (§1) Ligand-binding assays were performed on a HORIBA FluoroMax®-4 Fluorescence spectrophotometer (HORIBA Scientific, United States) with a 1 cm light path quartz cuvette and 5 nm slits for both excitation and emission. The purified MaltOBP1 protein, served in the 1 cm light path quartz cuvette, was titrated with 1 nM 1-N-phenyl naphtylamine (1-NPN, Sigma, Riedstr, Steinheim, Germany) solution in methanol. The fluorescence intensity at the maximum emission wavelength of about 337 nm was linearized using the Scatchard equation ([Sideris et al., 1992]), and then binding affinity for MaltOBP1/1-NPN was calculated.
To assess the binding affinities of ligands to MaltOBP1, a mixture of 1-NPN and MaltOBP1 protein was titrated with 1 μM of each ligand dissolved in methanol. IC50 was obtained by data linearization, and the dissociation constant (Ki) was calculated following the equation: Ki = [IC50]/(1 + [1-NPN]/K1–NPN), where [1-NPN] is the free concentration of 1-NPN and K1–NPN is the dissociation constant of the protein/1-NPN complex ([Campanacci et al., 2001]), which was calculated from the binding curve using GraphPad Prism 5.01 (GraphPad Software, Inc.).

recombinant MaltOBP1 [2] = target: T1, recombinant MaltOBP1; assay: 1-NPN fluorescence binding assay (Scatchard); details: fluorescent probe titration, Scatchard linearization; read-out: dissociation constant of MaltOBP1/1-NPN
Experimental: as §1

[3] = competitive displacement of 1-NPN from MaltOBP1, ligands in methanol, read-out: IC50

T1 sequence (A6YIT8 entry or part of it): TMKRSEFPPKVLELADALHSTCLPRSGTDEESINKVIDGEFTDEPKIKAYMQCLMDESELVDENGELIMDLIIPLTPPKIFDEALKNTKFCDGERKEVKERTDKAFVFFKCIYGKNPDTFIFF

Compound	IC50 (recombinant MaltOBP1 [1]) [µM]	binding affinity to MaltOBP1 (in words) (recombinant MaltOBP1 [1])	Ki (recombinant MaltOBP1 [1]) [µM]	IC50 (recombinant MaltOBP1 [1]; [3]) [µM]	Kd (recombinant MaltOBP1 [2]) [µM]
C=C1CC/C=C(\C)CC[C@@H]2[C@@H]1CC2(C)C [(−)-trans-caryophyllene]	7.01	high binding affinity	–	–	–
C=C1[C@H]2CC[C@H](C2)C1(C)C [comphene, Comphene]	–	no binding affinity	–	–	–
CC1=CC(=O)[C@H]2C[C@@H]1C2(C)C [(−) -verbenone]	–	high binding affinity	37.4	63.1	–
C=C(C)[C@H]1CC=C(C)CC1 [(R)-(+)-limonene]	–	high binding affinity	12.8	21.7	–
CC1=CCC2C(C1)C2(C)C (single isomer, unassigned; (+)) [(+)-3-carene]	–	no binding affinity	–	–	–
C=C1CCC2CC1C2(C)C (stereo not drawn) [β- Pinene]	39.3	high binding affinity	–	–	–
C=CC(=C)CCC=C(C)C [myrcene]	–	no binding affinity	–	–	–
(+)-α-Pinene	–	high binding affinity	18.7	31.5	–
c1ccc(Nc2cccc3ccccc23)cc1 [1-NPN, 1-N-phenyl naphtylamine]	–	–	–	–	3.86
